How the values were obtained:
Italian ryegrass = test: Test E postemergence; type: in vivo, Lolium multiflorum
Source text: (§1) Seeds of plant species selected from corn (Zea mays), soybean (Glycine max), velvetleaf (Abutilon theophrasti), lambsquarters (Chenopodium album), wild poinsettia (Euphorbia heterophylla), palmer pigweed (Amaranthus palmeri), waterhemp (common waterhemp, Amaranthus rudis), surinam grass (Brachiaria decumbens), large (Lg) crabgrass (Digitaria sanguinalis), Brazilian crabgrass (Digitaria horizontalis), fall panicum (Panicum dichotomiflorum), giant foxtail (Setaria faberii), green foxtail (Setaria viridis), goosegrass (Eleusine indica), johnsongrass (Sorghum halepense), ragweed (common ragweed, Ambrosia elatior), barnyardgrass (Echinochloa crus-galli), sandbur (southern sandbur, Cenchrus echinatus), arrowleaf sida (Sida rhombifolia), Italian ryegrass (Lolium multiflorum), dayflower (Virginia (VA) dayflower, Commelina virginica), field bindweed (Convolvulus arvensis), morningglory (Ipomoea coccinea), nightshade (eastern black nightshade, Solanum ptycanthum), kochia (Kochia scoparia), yellow nutsedge (Cyperus esculentus), cocklebur (common cocklebur, Xanthium strumarium), smartweed (ladysthumb smartweed, and hairy beggarticks (Bidens pilosa), were planted into a silt loam soil and treated preemergence with test chemicals formulated in a non-phytotoxic solvent mixture which included a surfactant.
(§2) At the same time, plants from these crop and weed species and also horseweed (Canada horseweed, Conyza canadensis), waterhemp_RES1, (ALS & Triazine resistant common waterhemp, Amaranthus rudis), and waterhemp_RES2, (ALS & HPPD resistant common waterhemp, Amaranthus rudis) were planted in pots containing Redi-Earth® planting medium (Scotts Company, 14111 Scottslawn Road, Marysville, Ohio 43041) comprising spaghnum peat moss, vermiculite, wetting agent and starter nutrients were treated with postemergence applications of test chemicals formulated in the same manner. Plants ranged in height from 2 to 18 cm for postemergence treatments (1- to 4-leaf stage). Treated plants and controls were maintained in a greenhouse for 14 to 21 days, after which time all species were compared to controls and visually evaluated. Plant response ratings, summarized in Table E, are based on a scale of 0 to 100 where 0 is no effect and 100 is complete control. A dash (-) response means no test result.

wild poinsettia = test: Test E postemergence; type: in vivo, Euphorbia heterophylla
Source text: as §1, §2

dayflower = test: Test E postemergence; type: in vivo, Commelina virginica
Source text: as §1, §2

fall panicum = test: Test E postemergence; type: in vivo, Panicum dichotomiflorum
Source text: as §1, §2

winter barley = test: Test D postemergence; type: in vivo, Hordeum vulgare
In short: (§3)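 Visual rating vs untreated controls, 0 = no effect, 100 = complete control, taken 7–21 d after treatment. Pre: silt loam soil. Post: potting medium, plants 2–18 cm, 1–4 leaf. Formulation: non-phytotoxic solvent mix + surfactant.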

spring barley = test: Test D postemergence; type: in vivo, Hordeum vulgare
In short: as §3

oilseed rape = test: Test D postemergence; type: in vivo, Brassica napus
In short: as §3

wild mustard = test: Test D preemergence; type: in vivo, Sinapis arvensis
In short: as §3

chamomile = test: Test D preemergence; type: in vivo, Matricaria inodora; settings: scale 0-100
In short: as §3

pigweed = test: Test D preemergence; type: in vivo, Amaranthus retroflexus
In short: as §3

field poppy = test: Test D postemergence; type: in vivo, Papaver rhoeas
In short: as §3

bromegrass, downy = test: Test D postemergence; type: in vivo, Bromus tectorum
In short: as §3

wild radish = test: Test D preemergence; type: in vivo, Raphanus raphanistrum
In short: as §3

[1] = Postemergence, 31 g ai/ha, scale 0 to 100
[2] = Postemergence, 62 g ai/ha, scale 0 to 100
[3] = Postemergence, 125 g ai/ha, scale 0 to 100
[4] = postemergence, 8 g ai/ha, scale 0 to 100, 0 no effect, 100 complete control
[5] = postemergence, 16 g ai/ha, scale 0 to 100, 0 no effect, 100 complete control
[6] = Postemergence, 62 g ai/ha, scale 0 to 100 (0 no effect, 100 complete control)
[7] = Postemergence, 31 g ai/ha, scale 0 to 100 (0 no effect, 100 complete control)
[8] = Postemergence, 125 g ai/ha, scale 0 to 100 (0 no effect, 100 complete control)
[9] = Postemergence, 250 g ai/ha, scale 0 to 100 (0 no effect, 100 complete control)
[10] = 31 g ai/ha, scale 0 to 100 (0 no effect, 100 complete control)
[11] = 62 g ai/ha, scale 0 to 100 (0 no effect, 100 complete control)
[12] = 250 g ai/ha, scale 0 to 100 (0 no effect, 100 complete control)
[13] = 16 g ai/ha, scale 0 (no effect) to 100 (complete control)
[14] = 31 g ai/ha, scale 0 (no effect) to 100 (complete control)

Clc1cnc(Oc2cccc(Br)c2-n2cc(Br)cn2)nc1 [Compound 65]
Plant response rating, Ryegrass, Italian (Italian ryegrass; [1]): 0
Plant response rating, Ryegrass, Italian (Italian ryegrass; [2]): 0
Plant response rating, Ryegrass, Italian (Italian ryegrass; [3]): 0
Plant response rating, Ryegrass, Italian (Italian ryegrass; [4]): 0
Plant response rating, Ryegrass, Italian (Italian ryegrass; [5]): 0
Plant response rating, Poinsettia, Wild (wild poinsettia; [1]): 20
Plant response rating, Poinsettia, Wild (wild poinsettia; [2]): 20
Plant response rating, Poinsettia, Wild (wild poinsettia; [3]): 40
Plant response rating, Poinsettia, Wild (wild poinsettia; [4]): 15
Plant response rating, Poinsettia, Wild (wild poinsettia; [5]): 20
Plant response rating, Dayflower, VA (dayflower; [1]): 10
Plant response rating, Dayflower, VA (dayflower; [2]): 10
Plant response rating, Dayflower, VA (dayflower; [3]): 20
Plant response rating, Dayflower, VA (dayflower; [4]): 5
Plant response rating, Dayflower, VA (dayflower; [5]): 5
Plant response rating, Panicum, Fall (fall panicum; [1]): 5
Plant response rating, Panicum, Fall (fall panicum; [2]): 0
Plant response rating, Panicum, Fall (fall panicum; [3]): 15
Plant response rating, Panicum, Fall (fall panicum; [4]): 0
Plant response rating, Panicum, Fall (fall panicum; [5]): 0

Clc1cnc(Oc2ccccc2-n2cc(Cl)cn2)nc1 [Compound 3]
Plant response rating, Barley, Winter (winter barley; [6]): 0
Plant response rating, Barley, Winter (winter barley; [7]): 0
Plant response rating, Barley, Winter (winter barley; [8]): 0
Plant response rating, Barley, Winter (winter barley; [9]): 0
Plant response rating, Barley, Winter (winter barley; [5]): 50
Plant response rating, Barley, Spring (spring barley; [6]): 0
Plant response rating, Barley, Spring (spring barley; [7]): 0
Plant response rating, Barley, Spring (spring barley; [8]): 0
Plant response rating, Barley, Spring (spring barley; [9]): 10
Plant response rating, Barley, Spring (spring barley; [5]): 50
Plant response rating, Oilseed Rape (oilseed rape; 16 g ai/ha, scale 0-100): 90
Plant response rating, Oilseed Rape (oilseed rape; [10]): 80
Plant response rating, Oilseed Rape (oilseed rape; [11]): 80
Plant response rating, Oilseed Rape (oilseed rape; 125 g ai/ha, scale 0 to 100 (0 no effect, 100 complete control)): 90
Plant response rating, Oilseed Rape (oilseed rape; [12]): 95
Plant response rating, Mustard, Wild (wild mustard; [13]): 30
Plant response rating, Mustard, Wild (wild mustard; 31 g ai/ha, scale 0-100): 80
Plant response rating, Mustard, Wild (wild mustard; 62 g ai/ha, scale 0-100): 80
Plant response rating, Mustard, Wild (wild mustard; 125 g ai/ha, scale 0-100): 90
Plant response rating, Mustard, Wild (wild mustard; 250 g ai/ha, scale 0-100): 100
Plant response rating, Chamomile (chamomile; 31 g ai/ha): 0
Plant response rating, Chamomile (chamomile; 62 g ai/ha): 0
Plant response rating, Chamomile (chamomile; 125 g ai/ha): 20
Plant response rating, Chamomile (chamomile; 250 g ai/ha): 40
Plant response rating, Pigweed (pigweed; [13]): 0
Plant response rating, Pigweed (pigweed; [14]): 0
Plant response rating, Pigweed (pigweed; 62 g ai/ha, scale 0-100): 40
Plant response rating, Pigweed (pigweed; 125 g ai/ha, scale 0-100): 80
Plant response rating, Pigweed (pigweed; 250 g ai/ha, scale 0-100): 100
Plant response rating, Field Poppy (field poppy; 16 g ai/ha, scale 0-100): 10
Plant response rating, Field Poppy (field poppy; [10]): 0
Plant response rating, Field Poppy (field poppy; [11]): 0
Plant response rating, Field Poppy (field poppy; [12]): 0
Plant response rating, Bromegrass, Downy (bromegrass, downy; [6]): 0
Plant response rating, Bromegrass, Downy (bromegrass, downy; [7]): 0
Plant response rating, Bromegrass, Downy (bromegrass, downy; [8]): 0
Plant response rating, Bromegrass, Downy (bromegrass, downy; [9]): 0
Plant response rating, Bromegrass, Downy (bromegrass, downy; [5]): 50
Plant response rating, Radish, Wild (wild radish; [13]): 0
Plant response rating, Radish, Wild (wild radish; [14]): 20
Plant response rating, Radish, Wild (wild radish; 62 g ai/ha, scale 0-100): 60
Plant response rating, Radish, Wild (wild radish; 125 g ai/ha, scale 0-100): 90
Plant response rating, Radish, Wild (wild radish; 250 g ai/ha, scale 0-100): 95

From patent publication US9695155B2, “Herbicidal substituted pyrimidinyloxy benzene compounds” (E. I. DU PONT DE NEMOURS AND COMPANY, priority 2013, dated 2017)
